Values joined by “and” are separate entries in the source; they are usually repeats but may differ in a detail not shown here. Identical values can stand only once. Toxic doses and inconclusive results are not listed. The calls were made as follows: active = survival T/C of 150% or more; inactive = T/C below 125% in these data. Peptide text beside a SMILES is read from it. * marks the point of attachment. Cbz = O=C(OCc1ccccc1)*; OBn = c1ccc(CO*)cc1
Tested on: P388 leukemia ip, CD2F1 mice, survival T/C
Test: NCI In Vivo Anticancer Drug Screen. Data for tumor model P388 Leukemia (intraperitoneal) in CD2F1 (CDF1) mice
Settings: endpoint: median survival time, higher = longer survival
Method in brief: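 Mice carrying the transplanted tumor received test compound or vehicle. Survival was recorded in each group, and the value is the treated-group measurement divided by that of the vehicle-treated control group.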

[1] = dose: 100.0 mg/kg/injection, schedule: Q01DX009 (ip), vehicle: saline with Tween-80
[2] = dose: 60.0 mg/kg/injection, schedule: Q01DX005 (ip), vehicle: saline with Tween-80
[3] = dose: 120.0 mg/kg/injection, schedule: Q01DX005 (ip), vehicle: saline with Tween-80
[4] = dose: 50.0 mg/kg/injection, schedule: Q01DX005 (ip), vehicle: Klucel (hydroxypropylcellulose) (HPC)
[5] = dose: 100.0 mg/kg/injection, schedule: Q01DX005 (ip), vehicle: Klucel (hydroxypropylcellulose) (HPC)
[6] = dose: 200.0 mg/kg/injection, schedule: Q01DX005 (ip), vehicle: Klucel (hydroxypropylcellulose) (HPC)
[7] = dose: 25.0 mg/kg/injection, schedule: Q04DX002 (ip), vehicle: saline with Tween-80
[8] = dose: 50.0 mg/kg/injection, schedule: Q04DX002 (ip), vehicle: saline with Tween-80
[9] = dose: 100.0 mg/kg/injection, schedule: Q04DX002 (ip), vehicle: saline with Tween-80
[10] = dose: 50.0 mg/kg/injection, schedule: Q01DX005 (ip), vehicle: saline with Tween-80
[11] = dose: 100.0 mg/kg/injection, schedule: Q01DX005 (ip), vehicle: saline with Tween-80
[12] = dose: 200.0 mg/kg/injection, schedule: Q01DX005 (ip), vehicle: saline with Tween-80
[13] = dose: 50.0 mg/kg/injection, schedule: Q01DX009 (ip), vehicle: saline with Tween-80
[14] = dose: 200.0 mg/kg/injection, schedule: Q01DX009 (ip), vehicle: saline with Tween-80
[15] = dose: 50.0 mg/kg/injection, schedule: Q01DX009 (ip), vehicle: Klucel (hydroxypropylcellulose) (HPC)
[16] = dose: 50.0 mg/kg/injection, schedule: Q01DX009 (ip), vehicle: saline
[17] = dose: 100.0 mg/kg/injection, schedule: Q01DX009 (ip), vehicle: saline
[18] = dose: 200.0 mg/kg/injection, schedule: Q01DX009 (ip), vehicle: saline
[19] = dose: 25.0 mg/kg/injection, schedule: Q01DX005 (ip), vehicle: saline with Tween-80

Measured: T/C

Nc1cc(N)cc(Cc2ccccc2)c1
inactive: [1] 100 % of control | dose: 100.0 mg/kg/injection, schedule: Q04DX003 (ip), vehicle: saline with Tween-80 100 % of control | dose: 200.0 mg/kg/injection, schedule: Q04DX003 (ip), vehicle: saline with Tween-80 109 % of control | dose: 400.0 mg/kg/injection, schedule: Q04DX003 (ip), vehicle: saline with Tween-80 95 % of control

COc1ccc(C2C3=C(CCCC3=O)OC3=C2C(=O)CCC3)cc1
inactive: [2] 96 % of control | [3] 99 % of control | dose: 240.0 mg/kg/injection, schedule: Q01DX005 (ip), vehicle: saline with Tween-80 100 % of control

CCCn1cnc2c(sc3ccccc32)c1=O
inactive: [4] 101 % of control | [5] 93 % of control | [6] 93 % of control

O=C1C(C(=Nc2ccc(Cl)cc2)c2ccccc2)=C(O)c2ccccc21
inactive: [7] 95 % of control | [8] 95 % of control | [9] 95 % of control

Cc1ccc(S(=O)(=O)Nn2nnnc2N)cc1
inactive: dose: 100.0 mg/kg/injection, schedule: Q01DX001 (ip), vehicle: Klucel (hydroxypropylcellulose) (HPC) 102 % of control | dose: 200.0 mg/kg/injection, schedule: Q01DX001 (ip), vehicle: Klucel (hydroxypropylcellulose) (HPC) 100 % of control | dose: 400.0 mg/kg/injection, schedule: Q01DX001 (ip), vehicle: Klucel (hydroxypropylcellulose) (HPC) 100 % of control

O=C(Nc1cccc2ccccc12)OCCN=Cc1ccccc1O.O=C(Nc1cccc2ccccc12)OCCN=Cc1ccccc1O.[Cu]
inactive: [9] 94 % of control | dose: 200.0 mg/kg/injection, schedule: Q04DX002 (ip), vehicle: saline with Tween-80 94 % of control | dose: 400.0 mg/kg/injection, schedule: Q04DX002 (ip), vehicle: saline with Tween-80 107 % of control and 94 % of control

CCn1c2c(c3ccccc3c1=O)C(=O)c1ccccc1-2
inactive: [10] 103 % of control | [11] 103 % of control | [12] 94 % of control

[Cl][Pt+2][Cl].[NH-]c1ccc([N+](=O)[O-])cc1[NH-]
inactive: dose: 3.12 mg/kg/injection, schedule: Q04DX002 (ip), vehicle: saline with Tween-80 100 % of control | dose: 6.25 mg/kg/injection, schedule: Q04DX002 (ip), vehicle: saline with Tween-80 110 % of control and 113 % of control | dose: 12.5 mg/kg/injection, schedule: Q04DX002 (ip), vehicle: saline with Tween-80 115 % of control and 118 % of control | [7] 123 % of control | [8] 117 % of control

O=c1ncc(F)cn1C1OC(CO)C(O)C1O (stereo unspecified)
inactive: dose: 1.5 mg/kg/injection, schedule: Q01DX009 (ip), vehicle: Klucel (hydroxypropylcellulose) (HPC) 106 % of control | dose: 3.0 mg/kg/injection, schedule: Q01DX009 (ip), vehicle: Klucel (hydroxypropylcellulose) (HPC) 87 % of control | dose: 6.0 mg/kg/injection, schedule: Q01DX009 (ip), vehicle: Klucel (hydroxypropylcellulose) (HPC) 86 % of control

Cn1c(=O)c2c(ncn2Cc2ccc(O)c([N+](=O)[O-])c2)n(C)c1=O
inactive: dose: 25.0 mg/kg/injection, schedule: Q01DX005 (ip), vehicle: Klucel (hydroxypropylcellulose) (HPC) 91 % of control | [5] 94 % of control | [6] 92 % of control

O=C(NC(CO)C(=O)N1CCCC1C(=O)OCc1ccccc1)OCc1ccccc1 (stereo not drawn) (Cbz-Ser-Pro-OBn; configuration not given here)
inactive: [4] 96 % of control | [5] 93 % of control | [6] 92 % of control

C[Si]1(C)N[Si](C)(C)N([Si](C)(C)C)[Si](C)(C)N1
inactive: [10] 93 % of control | [11] 101 % of control | [12] 109 % of control

C=C=CON1CCCCC1
inactive: dose: 12.5 mg/kg/injection, schedule: Q01DX005 (ip), vehicle: saline 99 % of control | dose: 25.0 mg/kg/injection, schedule: Q01DX005 (ip), vehicle: saline 104 % of control | dose: 50.0 mg/kg/injection, schedule: Q01DX005 (ip), vehicle: saline 100 % of control and 104 % of control

COC(=O)C1CCOCCCOCCCOCCCOCCCOCCCC1=O (stereo unspecified)
inactive: [10] 100 % of control | [11] 105 % of control | [12] 100 % of control

NS(=O)(=O)/C(Br)=C/c1ccccc1
inactive: [13] 90 % of control | [1] 118 % of control | [14] 98 % of control

O=C1CC2(CCCCC2)C(=O)N1c1cc([N+](=O)[O-])ccn1
inactive: dose: 12.5 mg/kg/injection, schedule: Q01DX009 (ip), vehicle: Klucel (hydroxypropylcellulose) (HPC) 100 % of control | dose: 25.0 mg/kg/injection, schedule: Q01DX009 (ip), vehicle: Klucel (hydroxypropylcellulose) (HPC) 101 % of control | [15] 100 % of control and 92 % of control

CN(C)C=Nc1ccccc1
inactive: [16] 103 % of control | [17] 103 % of control | [18] 108 % of control

O=C1SC(Nc2ccc(Br)cc2)/C(=N\N=C2/C(Nc3ccc(Br)cc3)SC(=O)N2Cc2ccccc2)N1Cc1ccccc1 (stereo unspecified)
inactive: dose: 100.0 mg/kg/injection, schedule: Q04DX002 (ip), vehicle: Klucel (hydroxypropylcellulose) (HPC) 97 % of control | dose: 200.0 mg/kg/injection, schedule: Q04DX002 (ip), vehicle: Klucel (hydroxypropylcellulose) (HPC) 91 % of control | dose: 400.0 mg/kg/injection, schedule: Q04DX002 (ip), vehicle: Klucel (hydroxypropylcellulose) (HPC) 91 % of control

CCCCCCCCN1C(=O)c2ccccc2C1=O
inactive: dose: 25.0 mg/kg/injection, schedule: Q01DX009 (ip), vehicle: other 109 % of control | dose: 50.0 mg/kg/injection, schedule: Q01DX009 (ip), vehicle: other 103 % of control | dose: 100.0 mg/kg/injection, schedule: Q01DX009 (ip), vehicle: other 109 % of control | dose: 200.0 mg/kg/injection, schedule: Q01DX009 (ip), vehicle: other 98 % of control

Cc1nc(-c2ccccc2)oc1C(N)=O
inactive: [15] 108 % of control | dose: 100.0 mg/kg/injection, schedule: Q01DX009 (ip), vehicle: Klucel (hydroxypropylcellulose) (HPC) 110 % of control

COc1c2occc2c(OC)c2/c(=N/O)cc(C)oc12
inactive: [16] 107 % of control | [17] 98 % of control | [18] 97 % of control

CSCCC(NC(=O)OC(C)(C)C)C(=O)ON1C(=O)CCC1=O (stereo unspecified)
inactive: dose: 12.5 mg/kg/injection, schedule: Q01DX005 (ip), vehicle: saline with Tween-80 101 % of control and 107 % of control | [19] 103 % of control and 107 % of control | [10] 117 % of control and 98 % of control | [11] 106 % of control and 113 % of control and 116 % of control | [12] 107 % of control and 97 % of control

O=[N+]([O-])c1ccc(N2CCN(c3ccccc3)CC2)c2nonc12
inactive: dose: 50.0 mg/kg/injection, schedule: Q01DX009 (ip), vehicle: suspension in saline 100 % of control | dose: 100.0 mg/kg/injection, schedule: Q01DX009 (ip), vehicle: suspension in saline 99 % of control | dose: 200.0 mg/kg/injection, schedule: Q01DX009 (ip), vehicle: suspension in saline 99 % of control and 100 % of control

Cc1c([N+](=O)[O-])c(=O)[nH]n1C
inactive: [13] 96 % of control | [1] 88 % of control | [14] 89 % of control

CCOC(=O)c1c(OC)c(-c2ccccc2)c(=O)n2c3ccccc3n(C)c12
inactive: [2] 95 % of control | [3] 88 % of control

[N-]=[N+]=CC(=O)C1OC1c1ccc2ccccc2c1 (stereo unspecified)
inactive: [19] 93 % of control | [10] 100 % of control | [11] 99 % of control | [12] 105 % of control

Fc1cc(F)c(F)c(OCC2CO2)c1F (stereo unspecified)
inactive: [13] 100 % of control | [1] 94 % of control | [14] 101 % of control

CSCNc1ncnc2c1ncn2C1OC(CO)C(O)C1O (stereo unspecified)
inactive: [9] 120 % of control

COc1ccccc1NC(=S)N/N=C\c1cc(N=Nc2ccccc2)cc(OC)c1O
inactive: [10] 89 % of control | [11] 89 % of control

Oc1cc(O)c(Br)c(O)c1
inactive: dose: 7.5 mg/kg/injection, schedule: Q01DX005 (ip), vehicle: saline 108 % of control | dose: 15.0 mg/kg/injection, schedule: Q01DX005 (ip), vehicle: saline 111 % of control | dose: 30.0 mg/kg/injection, schedule: Q01DX005 (ip), vehicle: saline 105 % of control

CC(=O)Oc1cccn2c(C(=O)C(=O)c3ccc4c(OC(C)=O)cccn34)ccc12
inactive: [4] 92 % of control | [5] 86 % of control | [6] 94 % of control

O=Cc1coc2ccccc2c1=O
inactive: dose: 25.0 mg/kg/injection, schedule: Q01DX009 (ip), vehicle: saline 120 % of control | [16] 110 % of control | [17] 119 % of control and 120 % of control

Cc1cc(O)c(NCCN(C)C)c2c(=O)c3ccccc3sc12
inactive: [13] 100 % of control | [1] 101 % of control | [14] 100 % of control
